# Source: patent US11702479B2, “Anti-jagged antibodies and methods of use” (Genentech, Inc., priority 2012, dated 2023)
# Test system: Jagged1-induced signaling through Notch1
# Experiment: Co-culture Notch reporter (luciferase) assay, Jagged1-induced
# Assay type: cell-based
# Conditions: NIH-3T3 co-culture; antibody 0.4-50 μg/ml (Example 4) or 0.016-50 μg/ml (Example 5)
# Description: To determine whether anti-Jagged antibodies can act as antagonists of Jagged-induced Notch signaling, co-culture experiments were performed essentially as described by Wu et al., Nature 464, 1052-1057 (15 April 2010). NIH-3T3 cells engineered to express Jagged1, as the Notch ligand, were co-cultured with NIH 3T3 cells that stably express Notch1 and that were transiently transfected to express a Notch-responsive TP-1 (12× CSL) firefly luciferase reporter and a constitutively expressed Renilla luciferase reporter (pRL-CMV, Promega).
# Antibodies C and D, and their respective affinity-matured descendants, bind to both human and murine Jagged1, and human and murine Jagged2 (e.g., FIG. 10A). […] Signaling was induced by Jagged1 (FIG. 13B, dark gray columns) or by Jagged2 (FIG. 13B, light gray columns) and inhibition was determined as described in Example 4 using the antibodies at concentrations of 0.016-50 μg/ml. Controls included cultures that were not stimulated with ligand and not treated with antibody ([…], Untreated), not stimulated with ligand (FIG. 13B, No Stimulation or 3T3P), treated with 5-10 μg/ml isotype control antibody (FIG. 13B, agD or gD), stimulated with ligand but not treated with antibody (Stim/no AB or No Ab), treated with 5 μM of the gamma-secretase inhibitor DAPT or the DAPT vehicle control of DMSO.
structure (smiles),measurement,value
C[C@H](NC(=O)Cc1cc(F)cc(F)c1)C(=O)N[C@H]1N=C(c2ccccc2)c2ccccc2N(C)C1=O [Compound E],inhibition of Jagged1-induced Notch reporter expression,reduced to background levels
